In US7417156B2, “Orally active, antimalarial, anticancer, artemisinin-derived trioxane dimers” (Johns Hopkins University, priority 2002, dated 2008):
pIC50: −log10 of the molar value.

Tests used:
CCRF-CEM = assay: NCI 60 cell line panel screen (SRB); format: cell-based, human; settings: for Log10TGI50: TGI: PG=0
K-562 = assay: NCI 60 cell line panel screen (SRB); format: cell-based, human; settings: for Log10TGI50: TGI: PG=0
[1] = test system: chloroquine-sensitive P. falciparum (NF54); assay: Antimalarial activity in vitro, [3H]hypoxanthine incorporation; format: cell-based; settings: Table I; NF54 strain; read-out: IC50
60 cell line panel = format: cell-based; settings: for Log10LC50 Delta / Log10LC50 Range / Log10TGI50 Delta / Log10TGI50 Range: 60 cell line panel; for growth inhibition in words: colon cancer KM12, ovarian cancer OVCAR 3, breast cancer MDA-MB-435; for Log10GI50 MG MID: mean over panel; for Log10LC50 MG MID / Log10TGI50 MG MID: mean value over the 60 cell line panel
HCT-15 = assay: NCI 60 cell line panel screen (SRB); format: cell-based, human; settings: for Log10TGI50: TGI: PG=0
PC-3 = assay: NCI 60 cell line panel screen (SRB); format: cell-based, human; settings: for Log10TGI50: TGI: PG=0
HOP-92 = assay: NCI 60 cell line panel screen (SRB); format: cell-based, human; settings: for Log10TGI50: TGI: PG=0; for Log10GI50: Non-Small Cell Lung Cancer, HOP-92
HL-60(TB) = assay: NCI 60 cell line panel screen (SRB); format: cell-based, human; settings: for Log10TGI50: TGI: PG=0
UACC-257 = assay: NCI 60 cell line panel screen (SRB); format: cell-based, human; settings: for Log10GI50: Melanoma, UACC-257; for Log10TGI50: TGI: PG=0
MCF7 = assay: NCI 60 cell line panel screen (SRB); format: cell-based, human; settings: for Log10GI50: Breast Cancer, MCF7; for Log10TGI50: TGI: PG=0
KM12 = assay: NCI 60 cell line panel screen (SRB); format: cell-based, human; settings: for Log10TGI50: TGI: PG=0
A549/ATCC = assay: NCI 60 cell line panel screen (SRB); format: cell-based, human; settings: for Log10TGI50: TGI: PG=0; for Log10GI50: Non-Small Cell Lung Cancer, A549/ATCC
HS 578T = assay: NCI 60 cell line panel screen (SRB); format: cell-based, human; settings: for Log10GI50: Breast Cancer, HS 578T; for Log10TGI50: TGI: PG=0
MOLT-4 = settings: for Log10GI50: Leukemia, MOLT-4; for Log10TGI50: TGI: PG=0
Method: Growth Inhibition. […] The screening assay is performed on 96-well microtitre plates. Relatively high initial inoculation densities are used, in order to permit measurement of “time-zero” values and to enhance the screen's ability to detect and provide some differentiation between growth inhibition and cytotoxic response parameters. […] The inoculated microtitre plates are pre-incubated for 24 hours at 37° C. prior to drug additions. The five drug dilutions tested routinely range from 10^−4 to 10^−8 molar. Higher or lower concentration ranges may be selected on a non-routine basis if appropriate solubility and/or prior biological information or other screening data so dictate. Duplicate wells are prepared for all concentrations, (concentration is often denoted by placing brackets around a number); “time-zero” and “no drug” controls are also provided for each test. The minimum amount of compound required for a one-time evaluation in the routine screen can be calculated from the knowledge that each test requires a total of approximately 40 ml (0.04 liter) of cell culture medium containing the highest desired drug concentration. […] After a 48 hour incubation (37° C.) with the test compound, the cells are fixed in situ to the bottoms of the microtitre wells by addition of 50 μl of either 50% trichloroacetic acid (for adherent cell lines) or 80% trichloroacetic acid (for settled cell suspension lines), followed by incubation for 60 minutes at 4° C. The cellular protein in each well is assayed using a sulforhodamine B (SRB) stain procedure. Briefly, after discarding the supernatants, the microtitre plates are washed 5 times with deionized water and air-dried. […] Unbound SRB is removed by washing 5 times with 1% acetic acid. […] SRB is a bright pink anionic dye which, in dilute acetic acid, binds electrostatically to the basic amino acids of TCA-fixed cells. Cryopreserved master stocks of all the lines are maintained, and cultures used for screening are replaced from the master stock after no more than twenty passages in the screening laboratory. The cell line panel consists of 60 lines, organized into nine, disease-related subpanels including leukemia, non-small-cell lung cancer, colon, CNS, melanoma, ovarian, renal, prostate and breast cancers.
At this value the increase from time tzero, in the number or mass of cells in the test well is only 50% as much as the corresponding increase in the control well during this period of the experiment, see Table III. A drug effect of this intensity is interpreted as primary growth inhibition.
At this value the number or mass of cells in the well at the end of the experiment equals the number or mass of cells in the well at time tzero, see Table IV. A drug effect of this intensity is regarded as cytostasis.
At this value, the number or mass of cells in the test well at the end of the experiment is half that at time tzero, see Table V. This is interpreted as cytotoxicity.
Dose response curves, shown in the above mentioned Figures, are obtained by exposing various cancer cell lines to compounds having a known concentration ([log10M]), as discussed in detail above, and then plotting the percentage growth of each cell line for each concentration. […] Percentage growth is determined by dividing the number or mass of cells in the test well by the number or mass of cells in a control well. […] As discussed previously, the five drug dilutions routinely tested range from 10^−4 to […].

NCI-H460 = assay: NCI 60 cell line panel screen (SRB); format: cell-based, human; settings: for Log10TGI50: TGI: PG=0
OVCAR-3 = assay: NCI 60 cell line panel screen (SRB); format: cell-based, human
[2] = HOP-92 (Non-Small Cell Lung Cancer)
[3] = A549/ATCC (Non-Small Cell Lung Cancer)
[4] = NCI-H460 (Non-Small Cell Lung Cancer)

`CC1CCC2C(C)C(CC(COCC(=O)O)CC3OC4OC5(C)CCC6C(C)CCC(C3C)C46OO5)OC3OC4(C)CCC1C32OO4` (stereo not drawn) [Compound 12b, bis-trioxane O-acetic acid] was tested, and the Log10TGI50 (CCRF-CEM; CCRF-CEM (Leukemia)) was >−4.30 log10M, the Log10TGI50 (K-562; K-562 (Leukemia)) was >−4.30 log10M and the pIC50 [1] was 8.49. The “Log10GI50 Delta” value (60 cell line panel) was 1.57, the “Log10GI50 Range” value (60 cell line panel) was 4.00 and the “Log10LC50 Delta” value (60 cell line panel) was 0.70. The “Log10LC50 Range” value (60 cell line panel) was 0.72, the “Log10TGI50 Delta” value (60 cell line panel) was 3.49 and the “Log10TGI50 Range” value (60 cell line panel) was 4.00. The “growth inhibition in words” value (60 cell line panel) was “selectively and strong inhibitory”, the “Log10GI50 MG MID” value (60 cell line panel) was −6.73 and the “Log10LC50 MG MID” value (60 cell line panel) was −4.32 log10M. The “Log10TGI50 MG MID” value (60 cell line panel) was −4.81 log10M, the Log10TGI50 (HCT-15; HCT-15 (Colon Cancer)) was −5.00 log10M and the Log10TGI50 (PC-3; PC-3 (Prostate Cancer)) was −4.92 log10M. The Log10TGI50 (HOP-92; [2]) was >−4.30 log10M, the Log10GI50 (HOP-92) was −7.00 and the Log10TGI50 (HL-60(TB); HL-60(TB) (Leukemia)) was <−8.30 log10M. The Log10GI50 (UACC-257) was >−4.30, the Log10TGI50 (UACC-257; UACC-257 (Melanoma)) was >4.30 log10M and the Log10GI50 (MCF7) was −7.37. The Log10TGI50 (MCF7; MCF7 (Breast Cancer)) was >−4.30 log10M, the Log10TGI50 (KM12; KM12 (Colon Cancer)) was <−8.30 log10M and the Log10TGI50 (A549/ATCC; [3]) was >−4.30 log10M. The Log10GI50 (A549/ATCC) was >−4.30, the Log10GI50 (HS 578T) was >−4.30 and the Log10TGI50 (HS 578T; HS 578T (Breast Cancer)) was >−4.30 log10M. The Log10GI50 (MOLT-4) was −7.66, the Log10TGI50 (MOLT-4; MOLT-4 (Leukemia)) was >−4.30 log10M and the Log10TGI50 (NCI-H460; [4]) was >−4.30 log10M.

In the case of `CC1CCC2C(C)C(CC(COC(=O)CCC(=O)O)CC3OC4OC5(C)CCC6C(C)CCC(C3C)C46OO5)OC3OC4(C)CCC1C32OO4` (stereo not drawn) [Compound 8a, bis-trioxane primary succinate monoester], the Log10LC50 (CCRF-CEM; CCRF-CEM (Leukemia), LC50: PG=−50) was >−4.30 log10M, the Log10TGI50 (CCRF-CEM; CCRF-CEM (Leukemia)) was >−4.30 log10M and the Log10GI50 (CCRF-CEM; Leukemia, CCRF-CEM) was <−8.30. The Log10LC50 (K-562; K-562 (Leukemia), LC50: PG=−50) was >−4.30 log10M, the Log10TGI50 (K-562; K-562 (Leukemia)) was >−4.30 log10M and the Log10GI50 (K-562; Leukemia, K-562) was <−8.30. For the same compound, the pIC50 [1] was 8.70, the “Log10GI50 Delta” value (60 cell line panel) was 1.29 and the “Log10GI50 Range” value (60 cell line panel) was 4.00. The “Log10LC50 Delta” value (60 cell line panel) was 0.46, the “Log10LC50 Range” value (60 cell line panel) was 0.48 and the “Log10TGI50 Delta” value (60 cell line panel) was 3.26. For the same compound, the “Log10TGI50 Range” value (60 cell line panel) was 4.00, the “growth inhibition in words” value (60 cell line panel) was “selectively and strong inhibitory” and the “Log10GI50 MG MID” value (60 cell line panel) was −7.01. For the same compound, the “Log10LC50 MG MID” value (60 cell line panel) was −4.32 log10M, the “Log10TGI50 MG MID” value (60 cell line panel) was −5.04 log10M and the Log10GI50 (HCT-15; Colon Cancer, HCT-15) was <−8.30. The Log10LC50 (HCT-15; HCT-15 (Colon Cancer), LC50: PG=−50) was >−4.30 log10M, the Log10TGI50 (HCT-15; HCT-15 (Colon Cancer)) was −5.61 log10M and the Log10LC50 (PC-3; PC-3 (Prostate Cancer), LC50: PG=−50) was >−4.30 log10M. For the same compound, the Log10TGI50 (PC-3; PC-3 (Prostate Cancer)) was >−4.30 log10M, the Log10GI50 (PC-3; Prostate Cancer, PC-3) was <−8.30 and the Log10LC50 (HOP-92; HOP-92 (Non-Small Cell Lung Cancer), LC50: PG=−50) was >−4.30 log10M. For the same compound, the Log10TGI50 (HOP-92; [2]) was >−4.30 log10M, the Log10GI50 (HOP-92) was −6.56 and the Log10LC50 (HL-60(TB); HL-60(TB) (Leukemia), LC50: PG=−50) was >−4.30 log10M. For the same compound, the Log10TGI50 (HL-60(TB); HL-60(TB) (Leukemia)) was −7.61 log10M, the Log10GI50 (HL-60(TB); Leukemia, HL-60(TB)) was <−8.30 and the Log10GI50 (UACC-257) was −5.02. For the same compound, the Log10LC50 (UACC-257; UACC-257 (Melanoma), LC50: PG=−50) was >−4.30 log10M, the Log10TGI50 (UACC-257; UACC-257 (Melanoma)) was >−4.30 log10M and the Log10GI50 (MCF7) was <−8.30. For the same compound, the Log10LC50 (MCF7; MCF7 (Breast Cancer), LC50: PG=−50) was >−4.30 log10M, the Log10TGI50 (MCF7; MCF7 (Breast Cancer)) was >−4.30 log10M and the Log10GI50 (KM12; Colon Cancer, KM12) was <−8.30. The Log10LC50 (KM12; KM12 (Colon Cancer), LC50: PG=−50) was −4.60 log10M, the Log10TGI50 (KM12; KM12 (Colon Cancer)) was <−8.30 log10M and the Log10LC50 (OVCAR-3; OVCAR-3 (Ovarian Cancer), LC50: PG=−50) was >−4.30 log10M. For the same compound, the Log10TGI50 (OVCAR-3; OVCAR-3 (Ovarian Cancer), TGI: PG=0) was −8.21 log10M, the Log10GI50 (OVCAR-3; Ovarian Cancer, OVCAR-3) was <−8.30 and the Log10LC50 (A549/ATCC; A549/ATCC (Non-Small Cell Lung Cancer), LC50: PG=−50) was >−4.30 log10M. For the same compound, the Log10TGI50 (A549/ATCC; [3]) was >−4.30 log10M, the Log10GI50 (A549/ATCC) was −4.42 and the Log10GI50 (HS 578T) was >−4.30. For the same compound, the Log10LC50 (HS 578T; HS 578T (Breast Cancer), LC50: PG=−50) was >−4.30 log10M, the Log10TGI50 (HS 578T; HS 578T (Breast Cancer)) was >−4.30 log10M and the “concentration for cytotoxicity (percentage growth −50)” value (MOLT-4) was “greater than 10^−4 M”. For the same compound, the Log10GI50 (MOLT-4) was −8.18, the Log10LC50 (MOLT-4; MOLT-4 (Leukemia), LC50: PG=−50) was >−4.30 log10M and the Log10TGI50 (MOLT-4; MOLT-4 (Leukemia)) was >−4.30 log10M. For the same compound, the Log10LC50 (NCI-H460; NCI-H460 (Non-Small Cell Lung Cancer), LC50: PG=−50) was >−4.30 log10M, the Log10TGI50 (NCI-H460; [4]) was >−4.30 log10M and the Log10GI50 (NCI-H460; Non-Small Cell Lung Cancer, NCI-H460) was <−8.30.
